Test results from patent US20230329245A1, “COMPOSITIONS AND METHODS OF USE THEREOF” (Curie Co. Inc., priority 2020, published 2023).
Values joined by “and” are separate entries in the source; they are usually repeats but may differ in a detail not shown here. Equal values may be shown once. Read-outs that look alike come from different tables or passages of the source.

Columns and labels:
Format in all cases: cell-based
[1] = tested on: E. coli ATCC 8739; test: MIC determination, E. coli
Experimental: (§1) A variant form of Streptomyces mobaraensis transglutaminase having the amino acid sequence depicted in SEQ ID NO:6 was prepared by literature methods with a hexa-his-tag to aid in purification (Javitt, et al. (2017) BMC Biotechnol. 17:23). The cells were grown in shake flasks, lysed by homogenization, and the Tgase variant (SEQ ID NO:6) was isolated from the cell debris by centrifugation. The resulting semi-purified enzyme (clarified lysate) were compared on an SDS-PAGE gel, by spectroscopy, and activity for concentration of active enzyme. The Tgase variant (SEQ ID NO:6) was further purified by affinity column on a Ni-IMAC resin prior to MIC assay. Tgase activity was measured in the examples herein using a colorimetric hydroxamate activity assay (Folk and Cole (1965) J Biol Chemistry 240(7):2951-2960). The enzyme was diluted to a working stock concentration of 2 mg/mL in CAMHB or RPMI media (bacterial or fungal media). This was then 2-fold serial diluted ten times in the appropriate media in a 96-well master plate to generate 2× starting concentrations for MIC testing.
(§2) Strains were acquired from the American Type Culture Collection (ATCC) (Manassas, VA) and maintained as −80° C. frozen glycerol stocks: S. aureus ATCC 6538, E. coli ATCC 8739, P. aeruginosa ATCC 9027, C. albicans ATCC 10231, and A. brasiliensis ATCC 16404. B. subtilis BGSC 1A1276 was purchased from the Bacillus Genetic Stock Center (BGSC) (Columbus, OH) and maintained as −80° C. frozen glycerol stock. Cation-adjusted Mueller-Hinton broth (CAMHB) at pH 7.3 was used for testing with bacterial species (unless otherwise noted), while RPMI 1640 media buffered with 0.165 M MOPS at pH 7.0 was used for testing with all fungal species.
For MIC determination, bacterial strains (S. aureus ATCC 6538, E. coli ATCC 8739, P. aeruginosa ATCC 9027) were grown overnight on Tryptic Soy Agar (TSA) plates at 37° C. A few colonies of each strain were collected with a sterile swab and used to make a McFarland 0.5 standard solution (approximately 1×10^8 CFU/mL) in sterile PBS. The McFarland solution was then diluted 1:100 in CAMHB to generate the inoculum, and 50 μL of this inoculum was combined with 50 μL of the 2× test article in a 96-well plate for a final concentration of 1×. All test conditions were performed in duplicate. The bacterial-strain MIC 96-well plates were incubated at 37° C. for 18 to 20 hours. MIC is defined as the lowest concentration of a compound in which no visible growth is observed.

[2] = tested on: E. coli ATCC 8739; test: Growth inhibition of E. coli culture in LB (OD600 / BacTiter-Glo); conditions: for inhibition at 3000 µg/mL / inhibition at 500 µg/mL: Escherichia coli, ATCC8739; for inhibition at 3000 µg/mL / growth inhibition / growth inhibition in the presence of 400 μg/mL Tgase SEQ ID NO: 6 / inhibition at 500 µg/mL: E. coli ATCC 8739
Experimental: (§3) For MIC determination of bacterial cultures, E. coli ATCC 8739, DH5-alpha, DH10-beta, and B. subtilis BGSC 1A1276 was grown overnight (16-18 hours) in LB broth at 37° C. The following day, the cell density of the saturated cultures was calculated using OD600 and cultures were diluted to 10^4 to 10^6 CFU/mL in sterile LB media to generate the inoculum, and 90 μL of the inoculum was combined with 10 μL of serially diluted Tgase SEQ ID NO:1 at a range of 0.0001-0.01 weight percent in the presence or absence of 0.003% lysozyme (100-fold lower than the effective concentration). Growth curves were measured by OD600 on a BioTek® Synergy Plate Reader. Optionally, the following day, a cell viability assay such as BacTiter-Glo™ (Promega®) following manufacturer's protocols) could be used to assess cell viability. A decrease in OD600 or luminescence indicated a decrease in cell viability. Results are presented as a percent reduction in cell count relative to an untreated culture. All test conditions were performed in triplicate.
E. coli ATCC 8739 was grown overnight in LB broth at 37° C. The following day, the cell density of the saturated cultures was calculated using OD600 and cultures were diluted to 10^4 to 10^6 CFU/mL in sterile LB media to generate the inoculum, and 90 μL of the inoculum was combined with 10 μL of serially diluted Tgase SEQ ID NO:6 at a range of 0.001-0.1 weight percent in the presence or absence of chemical preservatives at concentrations above and below the calculated MIC value. A single concentration (at the MIC) of the chemical preservative and static concentrations of Tgase SEQ ID NO:6 (400 μg/mL, 0.04% w/v) are presented in Table 8 as representative examples. Growth curves were measured by OD600 on a BioTek® Synergy Plate Reader and a cell viability assay (BacTiter-Glo™, Promega®, following manufacturer's protocols) was used to assess cell viability. A decrease in OD600 or luminescence indicated a decrease in cell viability. Results are presented as a percent reduction in cell count relative to an untreated culture. […]

[3] = tested on: C. albicans ATCC 10231; test: MIC determination, C. albicans; conditions: RPMI 1640 pH 7.0, 37° C., 24 to 48 hours, duplicate
Experimental: as §1, with “testing. […]” for “testing.”
(§4) C. albicans MIC 96-well plate was incubated for 37° C. for 24 to 48 hours. […] After incubation, all 96-well plates were examined visually and on a spectrophotometer at absorbance OD650. […]

[4] = tested on: A. brasiliensis ATCC 16404; test: MIC determination, A. brasiliensis; conditions: RPMI 1640 pH 7.0, 25° C., up to 7 days, duplicate
Experimental: as §1, with “testing. […]” for “testing.”
as §4

[5] = tested on: P. aeruginosa ATCC 9027; test: MIC determination, P. aeruginosa; conditions: CAMHB pH 7.3, 37° C., 18 to 20 hours, duplicate
Experimental: as §1, §2
For MIC determination, bacterial strains (S. aureus ATCC 6538, E. coli ATCC 8739, P. aeruginosa ATCC 9027) were grown overnight on Tryptic Soy Agar (TSA) plates at 37° C. A few colonies of each strain were collected with a sterile swab and used to make a McFarland 0.5 standard solution (approximately 1×10^8 CFU/mL) in sterile PBS. […]

[6] = tested on: S. aureus ATCC 6538; test: MIC determination, S. aureus; conditions: CAMHB pH 7.3, 37° C., 18 to 20 hours, duplicate
Experimental: as §1
Strains were acquired from the American Type Culture Collection (ATCC) (Manassas, VA) and maintained as −80° C. frozen glycerol stocks: S. aureus ATCC 6538, E. coli ATCC 8739, P. aeruginosa ATCC 9027, C. albicans ATCC 10231, and A. brasiliensis ATCC 16404. […]

[7] = tested on: B. subtilis BGSC 1A1276; test: Growth reduction of B. subtilis culture (OD600 / BacTiter-Glo)
Experimental: as §3
(§5) Yeast or bacterial starter cultures were grown as described previously. Tgase (SEQ ID NO:6) was added to each culture at 0.001-1 weight percent. The cultures were grown overnight at 30° C.-37° C. and growth curves were measured by a BioTek® Synergy Plate Reader.

[8] = tested on: C. albicans ATCC 10231; test: Growth reduction of C. albicans culture (OD600 / BacTiter-Glo)
Experimental: For MIC determination of yeast cultures, C. albicans ATCC 10231 was grown overnight (24 hours) in YPD media at 30° C. The following day, the cell density of the saturated cultures was calculated using OD600 and cultures were diluted to 10^4 to 10^6 CFU/mL in sterile YPD media to generate the inoculum, and 90 μL of the inoculum was combined with 10 μL of serially diluted Tgase SEQ ID NO:1 at a range of 0.0001-0.01 weight percent. The cultures were grown overnight at 30° C. and growth curves were measured by OD600 on a BioTek® Synergy Plate Reader. Optionally, the following day, a cell viability assay such as BacTiter-Glo™ (Promega®) following manufacturer's protocols) could be used to assess cell viability. A decrease in OD600 or luminescence indicated a decrease in cell viability. Results are presented as a percent reduction in cell count relative to an untreated culture. All test conditions were performed in triplicate.
as §5

[9] = Escherichia coli, ATCC8739, read-out: Concentration (MIC values; single concentration at the MIC of the chemical preservative)
[10] = CAMHB pH 7.3, 37° C., 18 to 20 hours, duplicate

Molecule: CCCCC(O)CO (centres unmarked) [1,2-hexandiol]
- MIC [1, 9]: 3000 µg/mL
- inhibition at 3000 µg/mL ([2]; 3,000 μg/mL preservative + 400 μg/mL Tgase SEQ ID NO: 6, read-out: growth inhibition in the presence of 400 μg/mL Tgase SEQ ID NO: 6): 99.5%
- inhibition at 3000 µg/mL ([2]; 3,000 μg/mL, read-out: growth inhibition): 97.9%

Molecule: O=C([O-])c1ccccc1.[Na+] [Sodium benzoate, sodium benzoate]
- Concentration (MIC values; single concentration at the MIC of the chemical preservative) [1]: 10,000 μg/mL
- MIC [1, 10]: 10,000 μg/mL
- MIC [3]: >20,000 μg/mL
- MIC [4]: 2,500 μg/mL and 1,250 μg/mL
- MIC [5]: 10,000 μg/mL
- MIC [6]: 10,000 μg/mL
- growth inhibition ([2]; 10,000 μg/mL): 99.85%
- growth inhibition in the presence of 400 μg/mL Tgase SEQ ID NO: 6 ([2]; 10,000 μg/mL preservative + 400 μg/mL Tgase SEQ ID NO: 6): 99.97%

Molecule: Benzalkonium chloride
- Concentration (MIC values; single concentration at the MIC of the chemical preservative) [1]: 16 µg/mL
- MIC [1, 10]: 15.63 µg/mL
- MIC [3]: 3.91 µg/mL
- MIC [5]: 62.5 µg/mL and 31.25 µg/mL
- growth inhibition ([2]; 16 μg/mL): 99.7%
- growth inhibition in the presence of 400 μg/mL Tgase SEQ ID NO: 6 ([2]; 16 μg/mL preservative + 400 μg/mL Tgase SEQ ID NO: 6): 99.94%

Molecule: CCCCCCC(O)CO (centres unmarked) [1,2-octandiol]
- MIC [1, 9]: 500 µg/mL
- inhibition at 500 µg/mL ([2]; 500 μg/mL preservative + 400 μg/mL Tgase SEQ ID NO: 6, read-out: growth inhibition in the presence of 400 μg/mL Tgase SEQ ID NO: 6): 99.3%
- inhibition at 500 µg/mL ([2]; 500 μg/mL, read-out: growth inhibition): 97.8%

Molecule: Cn1sccc1=O [MIT, Methylisothiazolinone]
- Concentration (MIC values; single concentration at the MIC of the chemical preservative) [1]: 150 µg/mL
- growth inhibition ([2]; 150 μg/mL): 98.7%
- growth inhibition in the presence of 400 μg/mL Tgase SEQ ID NO: 6 ([2]; 150 μg/mL preservative + 400 μg/mL Tgase SEQ ID NO: 6): 99.8%

B1: Tgase (SEQ ID NO: 1): wild-type Streptomyces mobaraensis transglutaminase, mature form, amino acid sequence SEQ ID NO:1 (protein, listed as Streptomyces mobaraensis)
chain: DSDDRVTPPAEPLDRMPDPYRPSYGRAETVVNNYIRKWQQVYSHRDGRKQQMTEEQREWLSYGCVGVTWVNSGQYPTNRLAFASFDEDRFKNELKNGRPRSGETRAEFEGRVAKESFDEEKGFQRAREVASVMNRALENAHDESAYLDNLKKELANGNDALRNEDARSPFYSALRNTPSFKERNGGNHDPSRMKAVIYSKHFWSGQDRSSSADKRKYGDPDAFRPAPGTGLVDMSRDRNIPRSPTSPGEGFVNFDYGWFGAQTEADADKTVWTHGNHYHAPNGSLGAMHVYESKFRNWSEGYSDFDRGAYVITFIPKSWNTAPDKVKQGWP
- Fold improvement in enzyme efficacy ([7]; Tgase (SEQ ID NO: 1) alone = 1): 1
- growth inhibition (in words) ([7]; Tgase alone): partially inhibited
- Percent Growth Reduction ([7]; enzyme concentration 960 ug/mL): 99.17%
- growth inhibition (in words) ([7]; upon adding a cell membrane disruptor, lysozyme): Full inhibition
- Fold improvement in enzyme efficacy ([8]; C. albicans ATCC 10231, Tgase (SEQ ID NO: 1) = 1): 1
- Percent Growth Reduction ([8]; C. albicans ATCC 10231, enzyme concentration 800 ug/mL): 83.11%
- growth inhibition (in words) ([8]; C. albicans, Tgase alone): partially inhibited
- growth inhibition ([2]; 960 μg/mL): 0.0%
- antimicrobial activity ([2]; gram negative E. coli ATCC 8739, DH5-alpha and DH10-beta, under the concentrations evaluated): little or no detectable antimicrobial activity
